Results published in publication PMC10104254, “Development of a novel angiotensin converting enzyme 2 stimulator with broad implications in SARS-CoV2 and type 1 diabetes” (Research Square, 2023).
Peptide text beside a SMILES is read from it.

Key:
SARS-CoV-2 = assay type: cell-based; details: 350 μM, pre-treated apically and basolaterally 1 h, then added every 12 h for 48 h; MOI 3; n=3 donors; versus PBS
rhACE2 [1] = biological target: T1, rhACE2 (Homo sapiens, UniProt Q9BYF1); set-up: method as in PMID 26931059; details: 20 amino acid peptide from Bothrops asper myotoxin; cited from earlier work
T1 construct: purchased R&D systems

rhACE2 [2] = biological target: T1, rhACE2; assay: ACE2-dependent breakdown of angiotensin II and formation of angiotensin 1-7 by LCMS; assay type: biochemical; details: 2A 1.7 μM, n=4
Experimental: The effect of 2A on ACE2-mediated cleavage of angiotensin II was assessed using LCMS. rhACE2 (0.1 ng/μL) was incubated with 2A (1.7 μM) for 1 h at 37 °C. Angiotensin II (0.02 μg/μL) was then added. Aliquots of equal volumes were collected at T = 0, 3, 6 and 24-h. Aliquots were immediately acidified with trifluoroacetic acid (0.1% final). Samples were snap frozen in dry ice and lyophilized for analysis by LCMS.
Prior to loading, samples were reconstituted in 100 μL loading buffer. Samples were analysed using a quadrupole TOF mass spectrometer (MicroTOFq, Bruker Daltonics, Bremen, Germany) coupled online with a 1200 series nano HPLC (Agilent Technologies). Samples were loaded onto a zorbax 300SB reversed-phase trap column equilibrated with 95% buffer A (0.1% formic acid). The flow rate was set to 10 μL/min. The components were eluted over a 10 min gradient to 70% buffer B (80% acetonitrile, 0.1% formic acid) and peptides were separated on zorbax 300SB-C18 nano column (75 μm × 15 cm, 3.5 μm). The eluant was nebulised and ionised using the Bruker nano-ESI source with a capillary voltage of 4500 V, dry gas at 180° C, flow rate set at […] and nebuliser gas pressure at 300 mbar. The mass spectrometry acquisition was in selected ion monitoring mode after selected ion extraction of the mass spectrometry spectra. […]

[3] = Stability of 2A in cell culture (HEK293), LCMS; assay type: in vitro ADME; details: peptide 9 μM, 60 min; for remaining at 1 h, 9 μM: human, HEK293 cells in culture, HEK293 cells 20,000 cells/well, Opti-MEM reduced serum media, mean ± SEM, read-out: amount remaining in the medium of HEK293 cells at T60 min compared with T0 min
Experimental: HEK293 (passage 24) were seeded into tissue-culture-grade 96-well plates at a density of 20,000 cells/well. After 24 h, cells were washed with PBS and replaced with Opti-MEM reduced serum media containing amidated or non-amidated 2A (9 μM). Aliquots of equal volume were taken at T = 0 and 60 min. Amidated 2A was added to control wells having media (no cells) only. Samples were immediately acidified in 0.1% TFA, snap frozen in dry ice and stored in −80 °C until analyzed by LCMS.
Samples were analyzed by LC-MS/MS on a Shimadzu Nexera uHPLC (Japan) coupled to a Triple Tof 5600 mass spectrometer (ABSCIEX, Canada) equipped with a duo electrospray ion source. One μl of each extract was injected onto a 2.1 mm × 100 mm Zorbax C18 1.8um column (Agilent) at 200 μL/min. Linear gradients of 1–50% solvent B over 7 min at 200 μL/min flow rate, followed by a steeper gradient from 50% to 98% solvent B in 1 min were used for peptide elution. Solvent B was held at 98% for 3 min for washing the column and returned to 1% solvent B for equilibration prior to the next sample injection. Solvent A consisted of 0.1% formic acid (aq) and solvent B contained 90/10 acetonitrile/ 0.1% formic acid (aq). The ionspray voltage was set to 5500 V, declustering potential (DP) 100 V, curtain gas flow 25, nebuliser gas 1 (GS1) 50, GS2 to 60, interface heater at 150 °C and the turbo heater to 500 °C. The mass spectrometer acquired 500ms full scan high resolution, at 30,000 resolving power, TOF-MS data over the mass range […].
Both amidated and non amidated 2A were quantified using the [M+2H]^2+ doubly charged molecular ion from m/z 575.32 to 575.37.
The data was acquired using Analyst TF 1.6 and quantification was carried out using MultiQuant 2.1.1 software (ABSCIEX, Canada).

[4] = Streptozotocin (STZ) model of type 1 diabetes in mice; assay type: in vivo, C57Bl/6J mice
Experimental: Streptozotocin (STZ; 150 mg/kg; i.p) was used to induce type 1 diabetes in male C57BI/6J mice. Blood glucose was measured 1 week post STZ injection to confirm the presence of diabetes (BG levels > 15 mmol/L at 1 week post STZ injection was included in this study). After establishment of diabetes (T0), mice were randomly allocated to receive 2A (1 mg/kg/ day; 10% DMSO in saline) or vehicle (10% DMSO in saline) via subcutaneous minipumps for a period 3 months. Non fasting blood glucose levels were measured every 2 weeks until study end (T3), and body weight was measured daily, until study end. 24-h urine samples were collected at 1 month intervals since commencement of 2A or its vehicle. (Detailed Methods section is provided at the end of the Discussion).
Streptozotocin (STZ) is a widely used model of type I diabetes which closely mimic the human disease[31],[32]. Male C57Bl/6J mice were purchased from Animal Resources Centre (Western Australia, Australia) and these mice were acclimatized for at least one week prior to inducing diabetes. […] Mouse body weight was measured daily. Blood glucose levels were measured via tail bleed 1-week post-STZ injection to confirm the establishment of diabetes (CareSens N; iSENS, Seoul, Korea). […] Blood glucose levels were measured every 2 weeks until the end of the treatment period. […]

[5] = Pharmacokinetics and tissue distribution of 2A in normal mice; details: LC-MS/MS
Experimental: Wild-type C57BL/6J mice (male, 10–12 weeks old) were purchased from the Animal Resources Centre (Western Australia, Australia). All animals were housed within the University of Queensland Biological Resources animal facility in a pathogen-free environment with a 12 h dark/12 h light cycle and free access to food and water.
The pharmacokinetic (PK) profile and biodistribution of 2A peptide was assessed in mice (n=5; per route at a dose of 1 mg/kg) after intravenous (i.v; tail vein), subcutaneous (s.c; between the shoulders) and intranasal (i.n; 10μl in each nostril with total volume of 20μl) administration. Blood samples were collected at 10, 20, 30, 45, 60 mins, 2 h and 4 h after drug administration via the tail vein using a microsampling technique[27]. At the terminal time point (24 h post administration), animals were anaesthetised with zolazepam (50 mg/kg) and xylazine (12 mg/kg) via i.p. injection. Blood samples were then collected via cardiac puncture as well as tail bleed to validate the sampling protocol. Plasma was isolated from blood samples by centrifugation (2000 g for 10 min at 4 °C), and stored at −80 °C. Following blood collection at the termination time point, mice were immediately perfused transcardially with saline to remove blood from tissues. Harvested tissue samples were then weighed and homogenized in an equal weight volume of milliQ water. On the day of analysis, aliquots (5 μL) of thawed plasma samples and 100μL of tissue homogenates were mixed with internal standard (10 μL) and processed for peptide quantification using a semi-validated LC–MS/MS method as described previously[28].
Quantification of 2A peptide was performed using AcF-[OPdChaWR] peptide as an internal standard as described previously[28]. […] Concentrations of 2A peptide in samples was measured against known concentration of internal standard and peak area ratio of analyte to internal standard. […]

T1 sequence (Q9BYF1 18-805): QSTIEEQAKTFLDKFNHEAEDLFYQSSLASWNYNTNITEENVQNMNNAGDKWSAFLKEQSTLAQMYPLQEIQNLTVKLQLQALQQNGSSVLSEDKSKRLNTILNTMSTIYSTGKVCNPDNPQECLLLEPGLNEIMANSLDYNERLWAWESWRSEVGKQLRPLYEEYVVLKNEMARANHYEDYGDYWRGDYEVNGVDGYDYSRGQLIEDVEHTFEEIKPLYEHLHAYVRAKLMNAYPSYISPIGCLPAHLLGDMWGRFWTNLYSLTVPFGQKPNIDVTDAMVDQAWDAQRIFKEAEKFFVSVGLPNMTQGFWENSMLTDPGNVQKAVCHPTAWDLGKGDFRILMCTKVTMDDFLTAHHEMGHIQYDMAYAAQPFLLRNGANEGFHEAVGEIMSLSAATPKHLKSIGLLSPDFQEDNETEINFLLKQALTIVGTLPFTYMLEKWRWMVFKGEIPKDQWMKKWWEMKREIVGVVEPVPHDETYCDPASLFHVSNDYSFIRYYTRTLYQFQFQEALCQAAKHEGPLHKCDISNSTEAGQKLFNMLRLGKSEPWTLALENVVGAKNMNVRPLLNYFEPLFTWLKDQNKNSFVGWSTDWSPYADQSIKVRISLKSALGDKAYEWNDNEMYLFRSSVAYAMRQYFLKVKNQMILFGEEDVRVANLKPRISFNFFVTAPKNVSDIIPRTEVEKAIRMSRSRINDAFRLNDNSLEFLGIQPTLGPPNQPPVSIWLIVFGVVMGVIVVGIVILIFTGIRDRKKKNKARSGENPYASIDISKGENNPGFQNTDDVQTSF

## N=C(N)c1ccc(/N=N/Nc2ccc(C(=N)N)cc2)cc1 [DIZE, diminazene]
SARS-CoV-2
  viral titres produced by epithelial cells at 48 hours post-infection: not significantly different

## 20 amino acid peptide: synthetic peptide corresponding to the first 20 amino acids of Bothrops asper myotoxin II
rhACE2 [1]
  effect on recombinant human ACE2 enzyme activity: stimulates recombinant human ACE2 enzyme activity

## CC[C@H](C)[C@H](NC(=O)[C@H](CCSC)NC(=O)[C@H](CCCCN)NC(=O)CNC(=O)[C@H](CC(C)C)NC(=O)[C@H](CCC(=O)O)NC(=O)[C@H](Cc1ccccc1)NC(=O)[C@H](CC(C)C)NC(=O)[C@@H](N)CO)C(=O)N[C@@H](CC(C)C)C(N)=O [2A] (H-SLFELGKMIL-NH2)
rhACE2 [2]
  increase of Ang 1-7 levels in the presence of ACE2 + 2A compared to ACE2 alone: 165 ± 12%
rhACE2 [2]; over a 24-h period, ACE2 alone 58 ± 4%
  reduction of Ang II levels in the presence of ACE2 + 2A: 83 ± 5%
[3]
  remaining at 1 h, 9 μM: 54 ± 4%
[3]; media only (no cells), Opti-MEM, possible adherence to plastic
  amount remaining in the cell culture medium in the absence of cells at T60 min: 63 ± 14%
[4]; 2A 1 mg/kg/day, 3 months
  effects on organ weight: minimal effects
[4]; pre-clinical animal models of this paper
  untoward effects in animal models: did not observe any untoward effects
[5]; 1 mg/kg i.v., s.c. or i.n., C57BL/6J mice, n=5 per route
  detection in plasma 24 h post administration: a small amount of peptide was still detected
[5]; 1 mg/kg i.v., s.c. or i.n., C57BL/6J mice, plasma, n=5 per route
  clearance from the circulation: rapidly cleared from the circulation over the first 4h
[5]; 1 mg/kg, irrespective of the route (i.v., s.c., i.n.), tissue homogenates
  tissue distribution 24-h post administration (heart, lung, spleen, kidney, brain and spinal cord): detectable at low concentrations

## CC[C@H](C)[C@H](NC(=O)[C@H](CCSC)NC(=O)[C@H](CCCCN)NC(=O)CNC(=O)[C@H](CC(C)C)NC(=O)[C@H](CCC(=O)O)NC(=O)[C@H](Cc1ccccc1)NC(=O)[C@H](CC(C)C)NC(=O)[C@@H](N)CO)C(=O)N[C@@H](CC(C)C)C(=O)O [non-amidated 2A] (H-SLFELGKMIL-OH; N-terminus assumed)
[3]
  remaining at 1 h, 9 μM: 29 ± 3%
